Assay [1] concerns the target one or more of HDAC-1, HDAC-2, HDAC-3, HDAC-4, HDAC-5, HDAC-6, HDAC-7, HDAC-8, HDAC-9, HDAC-10 and HDAC-11. Briefly: Inhibition of Histone Deacetylase Enzymatic Activity (Boc-Lys(Ac)-AMC substrate, Fluor-de-Lys developer). The note with it: read-out: HDAC Inhibition (IC50 μM) HDAC Enzyme. It is filed as biochemical. How it is done:
The following protocol is used to assay the compounds of the disclosure.
The mixture is pre-incubated for 5 minutes at room temperature. The reaction is started by bringing the temperature to 37° C. and adding 16 μl substrate. Total reaction volume is 50 μl.
In the Tables 8, 9 and 10, A≦0.05 μM; 0.05 μM<B≦0.1 μM; 0.1 μM<C≦1 μM; and 1 μM<D≦10 μM.

Assay [2] concerns HDAC activity in primary mouse cortical cultures. In words: Whole-Cell Histone Deacetylase (HDAC) Inhibition Assay in Primary Mouse Cortical Cultures. Particulars: whole-cell (WC), mouse cortical neurons, read-out: HDAC Inhibition (IC50 μM) WC mouse cortical neurons. It is filed as cell-based. How it is done: Primary neocortical cultures are established through the dissection of the neocortex from E17 embryos harvested from time-pregnant Balb/C mice. Following dissection, the neocortical tissue specimens undergo digestion by incubation at 37° C. for 10 minutes in dissection medium (1×HBSS/10 mM HEPES/1 mM Sodium Pyruvate) supplemented with (0.25%) Trypsin and (0.1%) DNase I. Digested tissue is washed and resuspended in plating medium (NeuroBasal/10% HS/0.5 mM L-Glutamine (Invitrogen Corporation)) for trituration. Additional plating medium is added, and the contents are passed over a 70 um cell-strainer. The cell-density is quantified using a hemacytometer, and dilutions are made to allow for the plating of 50000 cells/well/100 uL in 96-well PDL-coated plates. Plates are incubated for 4-5 hours in 37° C./5% CO2-incubator, after which time the entire volume is exchanged to feeding medium (NeuroBasal/2% B-27 Serum-free supplement/0.5 mM L-Glutamine/1% Penicillin-Streptomycin (Invitrogen Corporation)). The cultures undergo two 50% fresh feeding medium exchanges at 3 days in vitro (DIV3), and again at DIV7.
Compounds for testing are resuspended in dimethyl sulphoxide (DMSO), and further diluted in DMSO for a ten-point dose-response curve, with appropriate controls. Each master plate is assayed in triplicate. […] Three DIV9 culture plates are leveled to 50 uL/well, onto which each has overlaid 50 uL/well of the diluted daughter plate. The plates are returned to the 37° C./5% CO2-incubator for 16-18 hours.
The next step of the assay involves the exposure of a HDAC colorimetric substrate, comprising an acetylated lysine side chain, to the compound-treated neuronal cultures. Based on the ability of the compound to inhibit HDAC activity in the neuronal cultures, the substrate is deacetylated by HDACs, and subsequently sensitized. […] Compound-incubated culture plates are again leveled to 50 uL/well and 2 uL/well of 7.5 mM BOC-Lys (Ac)-AMC substrate is added and thoroughly mixed. Plates are returned to the 37° C./5% CO2-incubator for 1 hour.
The final addition to the culture plates entails treatment with a Fluor de Lys™-based developer (BIOMOL Research Laboratories, Inc.) to produce a fluorophore, which is analyzed using a spectrophotometer. The developer solution (1×Fluor de Lys™/1% NP-40/1 uM TSA in HDAC Buffer Solution) is prepared, and 50 uL/well is added to each of the wells of the culture plates. […] The plates are returned to the 37° C./5% CO2-incubator for 10-15 minutes, after which time, they are removed and set in the dark at room temperature for 5-10 minutes.
Primary neocortical cultures were established through the dissection of the neocortex from E17 embryos harvested from time-pregnant Balb/C mice. Following dissection, the neocortical tissue specimens underwent digestion by incubation at 37° C. for 10 minutes in dissection medium (1×HBSS/10 mM HEPES/1 mM Sodium Pyruvate) supplemented with (0.25%) Trypsin and (0.1%) DNase I. Digested tissue was washed and resuspended in plating medium (NeuroBasal/10% HS/0.5 mM L-Glutamine (Invitrogen Corporation)) for trituration. Additional plating medium was added, and the contents passed over a 70 um cell-strainer. The cell-density was quantified using a hemacytometer, and dilutions made to allow for the plating of 50000 cells/well/100 uL in 96-well PDL-coated plates. Plates were incubated for 4-5 hours in 37° C./5% CO2-incubator, after which time the entire volume was exchanged to feeding medium (NeuroBasal/2% B-27 Serum-free supplement/0.5 mM L-Glutamine/l % Penicillin-Streptomycin (Invitrogen Corporation)). The cultures underwent two 50% fresh feeding medium exchanges at 3 days in vitro (DIV3), and again at DIV7.
Compounds for testing were resuspended in dimethyl sulphoxide (DMSO), and further diluted in DMSO for a ten-point dose-response curve, with appropriate controls. Each master plate was assayed in triplicate.

From US20170000749A1, “Methods for Treating Cognitive Disorders Using Inhibitors of Histone Deacetylase” (Forum Pharmaceuticals, Inc., priority 2008, published 2017) come the findings set out here.

Usually IC50 stands for the midpoint of a concentration-inhibition curve.

Where two headings read alike, the source gives them in different places.

`O=C(NO)c1cnc(N2CCCN(c3ncc(C(F)(F)F)cc3Cl)CC2)nc1`: the IC50 in assay [1] (Table 10) is < 0.05 µM; in assay [2] (Table 10), 5 to 15 µM.

As for `O=C(NO)c1ccc(OCCN2C(=O)c3ccccc3Oc3ccccc32)c(F)c1`, the IC50 in assay [1] (Table 10) is 0.05 to 0.1 µM; in assay [2] (Table 10), < 1 µM. As to `O=C(NO)c1ccc(OCCN2C(=O)c3cc(F)ccc3Oc3ccccc32)cc1`, the IC50 in assay [1] (Table 10) was < 0.05 µM; in assay [2] (Table 10), < 1 µM.

With `O=C(NO)c1ccc(OCCN2C(=O)c3ccccc3Oc3cc(Cl)ccc32)cc1`, the half-inhibitory concentration (IC50) in assay [1] (Table 10) is < 0.05 µM; in assay [2] (Table 10), 1 to 5 µM. As to `O=C(NO)c1ccc(OCC(=O)N2Cc3ccccc3Oc3ccccc32)cc1`, the IC50 in assay [1] (Table 10) was 0.1 to 1 µM; in assay [2] (Table 10), 1 to 5 µM. With `O=C(NO)c1ccc(C2=Nc3ccccc3S(=O)(=O)c3ccccc32)cc1`, the IC50 fell in the range of 1 to 10 µM in assay [1] (Table 8) and 5 to 15 µM in assay [2] (Table 8). With `O=C(NO)c1ccc(C2=Nc3ccccc3[S+]([O-])c3ccccc32)cc1` (stereo not shown), the IC50 in assay [1] (Table 8) was in the range of 0.1 to 1 µM; in assay [2] (Table 8) it was 1 to 5 µM. The corresponding values for `O=C(NO)c1ccc(C2=Nc3cncnc3N3CCc4cccc2c43)cc1` are 0.1 to 1 µM and 5 to 15 µM. Consider `O=C(NO)c1cnc(N2C[C@@H]3C[C@H]2CN3c2cccc(S(F)(F)(F)(F)F)c2)nc1`, for which the figures for the IC50 in assay [1] (Table 9) and in assay [2] (Table 9) were < 0.05 µM and 1 to 5 µM, respectively.

As to `O=C(CCCCCCCON=C1c2ccccc2CCc2ccccc21)NO`, the values for the half-maximal inhibitory concentration (IC50) in assay [1] (Table 10) and in assay [2] (Table 10) were 0.1 to 1 µM and 1 to 5 µM, respectively. Consider `O=C(CCCCCCON=C1c2ccccc2CCc2ccccc21)NO`, for which the IC50 lay within 0.1 to 1 µM in assay [1] (Table 10) and 1 to 5 µM in assay [2] (Table 10). The corresponding values for `O=C(CCCCCON=C1c2ccccc2CCc2ccccc21)NO` are 0.1 to 1 µM and 5 to 15 µM. Take `O=C(CCCON=C1c2ccccc2CCc2ccccc21)NO`: the results for the IC50 in assay [1] (Table 10) and in assay [2] (Table 10) were 0.1 to 1 µM and 5 to 15 µM, respectively. On to `O=C(NO)c1ccc(CNC2c3ccccc3CCc3ccccc32)cc1`, for which the IC50 in assay [1] (Table 10) was < 0.05 µM; in assay [2] (Table 10), 5 to 15 µM.

As to `O=C(NO)c1ccc(CON=C2c3ccccc3CCc3ccccc32)cc1`, the IC50 is 0.1 to 1 µM in assay [1] (Table 10) and 5 to 15 µM in assay [2] (Table 10). The corresponding values for `O=C(/C=C/c1ccc(CNC2c3ccccc3CCc3ccccc32)cc1)NO` are 0.05 to 0.1 µM and 5 to 15 µM.

As for `O=C(NO)c1ccc(ON=C2c3ccccc3CCc3ccccc32)cc1`, the IC50 in assay [1] (Table 10) is 0.1 to 1 µM; in assay [2] (Table 10), 5 to 15 µM. The like results for `O=C(CCCCCON=c1c2ccccc2ccc2ccccc12)NO` were, in that order, 0.1 to 1 µM and 5 to 15 µM. Turning to `O=C(CCCCON=C1c2ccccc2CCc2ccccc21)NO`, the IC50 is 0.1 to 1 µM in assay [1] (Table 10) and 5 to 15 µM in assay [2] (Table 10). Take `O=C(NO)c1cnc(N2CCN(C3c4ccccc4CCc4ccccc43)CC2)nc1`: the IC50 in assay [1] (Table 10) lay in the range of 0.1 to 1 µM; in assay [2] (Table 10) it was 5 to 15 µM. The corresponding values for `O=C(NO)c1cnc(NCC2c3ccccc3CCc3ccccc32)nc1` are < 0.05 µM and 5 to 15 µM.

On to `CN(c1ncc(C(=O)NO)cn1)C1c2ccccc2CCc2ccccc21`, for which the IC50 in assay [1] (Table 10) is < 0.05 µM; in assay [2] (Table 10), 1 to 5 µM.

On to `O=C(NO)c1cnc(NC2c3ccccc3C=Cc3ccccc32)nc1`, for which the values for the IC50 in assay [1] (Table 10) and in assay [2] (Table 10) were < 0.05 µM and < 1 µM, respectively. The corresponding values for `O=C(CCCCCCN1c2ccccc2Oc2ccccc2S1(=O)=O)NO` are 0.1 to 1 µM and 1 to 5 µM.

Consider `O=C(CCCCCCC(=O)NC1c2ccccc2C=Cc2ccccc21)NO`, for which the IC50 was 0.1 to 1 µM in assay [1] (Table 10) and 1 to 5 µM in assay [2] (Table 10). The corresponding values for `O=C(CCCCCC(=O)NC1c2ccccc2C=Cc2ccccc21)NO` are 0.1 to 1 µM and 1 to 5 µM.

On to `O=C(NO)c1cnc(NC2c3ccccc3C=C(F)c3ccccc32)nc1` (stereo not shown), for which the IC50 in assay [1] (Table 10) was < 0.05 µM; in assay [2] (Table 10), < 1 µM. The corresponding values for `O=C(NO)c1ccc(NC2c3ccccc3CCc3ccccc32)nc1` are < 0.05 µM and < 1 µM. The corresponding values for `O=C(NO)c1cnc(C2c3ccccc3C=Cc3ccccc32)nc1` are 0.1 to 1 µM and > 15 µM. The like results for `O=C(NO)c1cccc(OCCN2C(=O)c3ccccc3Oc3ccccc32)c1` were, in that order, 0.1 to 1 µM and > 15 µM. For `O=C(NO)c1ccc(OCCN2C(=O)c3ccccc3Oc3ccccc32)cc1`, the results for the IC50 in assay [1] (Table 10) and in assay [2] (Table 10) were < 0.05 µM and < 1 µM, respectively.

With `CN1CCC2=C(C1)Oc1ccccc1N(CCOc1ccc(C(=O)NO)cc1)C2=O`, the values for the IC50 in assay [1] (Table 10) and in assay [2] (Table 10) were < 0.05 µM and < 1 µM, respectively.

As for `O=C(NO)c1ccc(OCCN2C(=O)CCOc3ccccc32)cc1`, the IC50 in assay [1] (Table 10) was < 0.05 µM; in assay [2] (Table 10), < 1 µM. For `O=C(NO)c1ccc(OCCN2CCOc3ccccc3C2=O)cc1`, the IC50 is < 0.05 µM in assay [1] (Table 10) and 1 to 5 µM in assay [2] (Table 10). The corresponding values for `O=C(NO)c1ccc(OCCN2C(=O)c3cccnc3Oc3ccccc32)cc1` are < 0.05 µM and < 1 µM. For `O=C(NO)c1ccc(OCCN2C(=O)c3ccncc3Oc3ccccc32)cc1`, the IC50 is < 0.05 µM in assay [1] (Table 10) and < 1 µM in assay [2] (Table 10).

Consider `O=C(/C=C/c1ccc(CN2C(=O)c3ccccc3Oc3ccccc32)cc1)NO`, for which the IC50 in assay [1] (Table 10) is < 0.05 µM; in assay [2] (Table 10), 1 to 5 µM. Turning to `O=C(NO)c1cnc(N2CC3CC2CO3)nc1` (stereo not shown) [2-(2-oxa-5-azabicyclo[2.2.1]heptan-5-yl)-N-hydroxypyrimidine-5-carboxamide], the IC50 in assay [1] (Table 9) lay in the range of 0.1 to 1 µM; in assay [2] (Table 9), 1 to 5 µM. The corresponding values for `N#Cc1cccc(N2CC3CC2CN3c2ncc(C(=O)NO)cn2)c1` (stereo not shown) [2-(5-(3-cyanophenyl)-2,5-diazabicyclo[2.2.1]heptan-2-yl)-N-hydroxypyrimidine-5-carboxamide] are < 0.05 µM and < 1 µM.

Turning to `O=C(NO)c1cnc(N2C[C@@H]3C[C@H]2CN3C(=O)C2CCCCC2)nc1` [2-((1S,4S)-5-(cyclohexanecarbonyl)-2,5-diazabicyclo[2.2.1]heptan-2-yl)-N-hydroxypyrimidine-5-carboxamide], in assay [2] (Table 9), the IC50 fell in the range of 1 to 5 µM. On to `O=C(NO)c1cnc(NC(c2ccccn2)c2ccccn2)nc1` [2-(dipyridin-2-ylmethylamino)-N-hydroxypyrimidine-5-carboxamide], for which the IC50 in assay [2] (Table 10) was < 1 µM. `CN(C)CCOc1ccc2c(c1)C(c1ccc(C(=O)NO)cc1)=Nc1ccccc1O2` [(Z)-4-(2-(2-(dimethylamino)ethoxy)dibenzo[b,f][1,4]oxazepin-11-yl)-N-hydroxybenzamide]: the IC50 in assay [2] (Table 8) is > 15 µM. Turning to `O=C(NO)c1ccc(N2C[C@@H]3C[C@H]2CN3c2nccc(C(F)(F)F)n2)cc1` [N-hydroxy-4-((1S,4S)-5-(4-(trifluoromethyl)pyrimidin-2-yl)-2,5-diazabicyclo[2.2.1]heptan-2-yl)benzamide], in assay [2] (Table 9), the IC50 lay within 1 to 5 µM.
